For orientation: inhibition means how much of the control response was suppressed. Lower therefore signals a response near the control.

Structures are written as SMILES.

This note sets out measurements from patent US20090163521A1, “Novel Pyrazolopyrimidinone Derivatives” (ORCHID RESEARCH LABORATORIES LIMITED, priority 2005, published 2009).

What all share (assay type): cell-based
For one test, the target named is T1, COX-2 (Homo sapiens, UniProt P35354).
T1 construct: Fresh blood was collected in tubes containing sodium heparin by vein puncture from healthy male volunteers; endogenous in cells; host or cells: human whole blood from healthy male volunteers, aspirin-pretreated and LPS-stimulated
T1 sequence (P35354 18-604): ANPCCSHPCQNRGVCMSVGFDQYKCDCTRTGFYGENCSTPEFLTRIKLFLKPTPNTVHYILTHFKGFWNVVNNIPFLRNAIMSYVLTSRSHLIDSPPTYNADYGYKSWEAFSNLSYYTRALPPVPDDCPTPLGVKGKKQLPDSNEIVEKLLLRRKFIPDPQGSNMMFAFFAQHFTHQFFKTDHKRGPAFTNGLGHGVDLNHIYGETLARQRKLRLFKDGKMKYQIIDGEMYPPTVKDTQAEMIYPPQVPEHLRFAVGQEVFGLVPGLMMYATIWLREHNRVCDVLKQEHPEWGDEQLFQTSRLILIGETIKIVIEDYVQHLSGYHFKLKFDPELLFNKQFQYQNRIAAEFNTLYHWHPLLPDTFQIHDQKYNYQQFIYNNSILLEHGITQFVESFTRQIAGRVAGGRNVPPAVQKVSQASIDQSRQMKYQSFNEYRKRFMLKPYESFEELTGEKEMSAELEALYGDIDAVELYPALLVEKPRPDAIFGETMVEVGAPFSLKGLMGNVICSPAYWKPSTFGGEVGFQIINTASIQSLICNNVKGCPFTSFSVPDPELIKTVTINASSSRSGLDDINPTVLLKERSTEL
The test can be described thus: Human whole blood assay (LPS-induced PGE2, COX-2 inhibition). To be noted: LPS stimulated. How it is done: Human whole blood provides a protein and cell rich milieu appropriate for the study of biochemical efficacy of anti-inflammatory compounds such as selective COX-2 inhibitors. […] This is correlating with the observation that COX-2 inhibitors have no effect on prostaglandin E2 (PGE2) production in normal blood. These inhibitors were active only after incubation of human blood with lipopolysaccharide (LPS), which induces COX-2 production in the blood.
Fresh blood was collected in tubes containing sodium heparin by vein puncture from healthy male volunteers. The subjects should have no apparent inflammatory conditions and not taken NSAIDs for at least 7 days prior to blood collection. Blood was preincubated with aspirin in vitro (12 μg/ml, at time zero) to inactivate COX-1 for 6 hours. Then test compounds (at various concentrations) or vehicle were added to blood. After that blood was stimulated with LPS B:4 (10 μg/ml) and incubated for another 18 h at 37° C. water bath. After which the blood was centrifuged, plasma was separated and stored at −80° C. (J. Pharmacol. Exp. Ther, 271, 1705, 1994; Proc. Natl. Acad. Sci. USA, 96, 7563, 1999). The plasma was assayed for PGE2 using Cayman ELISA kit as per the procedure outlined by the manufacturer (Cayman Chemicals, Ann Arbor, USA).

For another test, the system named is TNF-α. Put plainly: In vitro measurement of TNF-α in LPS-stimulated human PBMC. To be noted: LPS 1 μg/ml, 18 h. The method, then:
This assay determines the effect of test compounds on the production of TNF α in human Peripheral Blood Mononuclear Cells (PBMC). Compounds were tested for their ability to inhibit the activity of TNF α in human PBMC. PBMC were isolated from blood (from healthy volunteers) using BD Vacutainer CPT™ (Cell preparation tube, BD Bio Science) and suspended in RPMI medium (Physiol. Res. 52: 593-598, 2003). The test compounds were pre-incubated with PBMC (0.5 million/incubation well) for 15 minutes at 37° C. and then stimulated with Lipopolysaccharide (Escherichia coli: B4; 1 μg/ml) for 18 h at 37° C. in 5% CO2. The levels of TNFα in cell culture medium were estimated using enzyme linked Immunosorbent assay performed in a 96 well format as per the procedure of the manufacturer (Cayman Chemical, Ann Arbor, USA).

The test system of another test is NCI-H460. The test can be described thus: DTP human tumor cell line screen, NCI-H460. To be noted: 100 μM; 48 hours; percent growth of control. How it is done: (§1) The current assay utilizes a 384 well plate format and fluorescent staining technologies resulting in greater screening capacity for testing of synthetic samples.
(§2) The cell lines of the cancer-screening panel are grown in RPMI 1640 medium containing 5% fetal bovine serum and 2 mM L-glutamine. For a typical screening experiment, cells are inoculated into 96 well microtiter plates in 100 μL. After cell inoculation, the micro-titer plates are incubated at 37° C., 5% CO2, 95% air and 100% relative humidity for 24 h prior to addition of experimental drugs. The cells are plated a densities of 5000 cells/well (MCF7), 1000 cells/well (NCI-H460), and 7500 cells/well (SF-268) to allow for varying doubling time of the cell lines. Each plate contains all three-cell lines, a series of dilutions of standard agents, total kill wells and appropriate controls. Plates are incubated under standard conditions for 24 hours prior to addition of experimental compounds or extracts.
(§3) Experimental compounds are solubilized in dimethyl sulfoxide (DMSO) at 400-times the desired maximum test concentration (maximum final DMSO concentration of 0.25%) and stored frozen. Compounds are then diluted with complete media with 0.1% gentamicin sulfate (5 μl of test sample in 100% DMSO is added to 565 μl of complete medium). 20 μl of this solution is then dispensed into test wells containing 50 μl of cell suspension to yield a test concentration of 1.00E-04M.
(§4) After compound addition, plates are incubated at standard conditions for 48 hours, 10 μl/well Alamar Blue is added and the plates are incubated for an additional 4 hours. Fluorescence is measured using an excitation wavelength of 530 nm and an emission wavelength of 590 nm.
(§5) Percent growth is calculated on a plate-by-plate basis for test wells relative to control wells. Percent Growth is expressed as the ratio of fluorescence of the test well to the average fluorescence of the control wells ×100.

The test system of another test is MCF-7. Put plainly: DTP human tumor cell line screen, MCF-7. To be noted: 100 μM; 48 hours; percent growth of control. How it is done:
as §1, §2, §3, §4, §5

The next test concerns SF-268. Put plainly: DTP human tumor cell line screen, SF-268. Conditions: 100 μM; 48 hours; percent growth of control. How it is done:
as §1, §2, §3, §4, §5

On COX-2, `Cc1ccc(-n2c(-c3ccc(S(C)(=O)=O)cc3)nc3[nH]nc(N)c3c2=O)cc1` [Example 14, 3-Amino-5-(4-methylphenyl)-6-[(4-methylsulfonyl)phenyl]-1,5-dihydro-4H-pyrazolo[3,4-d]pyrimidin-4-one] came in with an inhibition at 0.25 µM of 19.3% and an inhibition at 10 µM of 23%.

In the case of `CSc1ccc(-c2nc3c(c(N)nn3C)c(=O)n2-c2ccc(Br)cc2)cc1` [Example 30, 3-Amino-5-(4-bromophenyl)-1-methyl-6-[4-(methylthio)phenyl]-1,5-dihydro-4H-pyrazolo[3,4-d]pyrimidin-4-one], the inhibition at 10 µM with TNF-α worked out at 86.6%.

For `CCOc1ccc(-n2c(-c3ccc(SC)cc3)nc3[nH]nc(N)c3c2=O)cc1` [Example 15, 3-Amino-5-(4-ethoxyphenyl)-6-[(4-methylthio)phenyl]-1,5-dihydro-4H-pyrazolo[3,4-d]pyrimidin-4-one], the inhibition at 0.25 µM against COX-2 turned out to be 20.2%.

Regarding `CSc1ccc(-n2c(-c3ccc(F)cc3)nc3[nH]nc(N)c3c2=O)cc1` [Example 5, 3-Amino-5-[(4-methylthio)phenyl]-6-(4-fluorophenyl)-1,5-dihydro-4H-pyrazolo[3,4-d]pyrimidin-4-one], testing at 10 µM at COX-2 gave an inhibition of 31.8%.

Consider `Cc1ccc(-n2c(-c3ccccc3)nc3[nH]nc(N)c3c2=O)cc1` [Example 16, 3-Amino-5-(4-methylphenyl)-6-phenyl-1,5-dihydro-4H-pyrazolo[3,4-d]pyrimidin-4-one], for which, on COX-2, at 0.25 µM the inhibition was 31.4%.

With `CSc1ccc(-c2nc3c(c(N)nn3C(C)=O)c(=O)n2-c2ccc(C)c(C)c2)cc1` [Example 37, 1-Acetyl-3-amino-5-(3,4-dimethylphenyl)-6-[(4-methylthio)phenyl]-1,5-dihydro-4H-pyrazolo[3,4-d]pyrimidin-4-one], in the test on TNF-α, the inhibition at 10 µM was 29.9%.

Turning to `COc1ccc(-n2c(-c3ccc(N(C)C)cc3)nc3c(c(N)nn3C)c2=O)cc1` [Example 31, 3-Amino-6-[4-(dimethylamino)phenyl]-5-(4-methoxyphenyl)-1-methyl-1,5-dihydro-4H-pyrazolo[3,4-d]pyrimidin-4-one], in the test on TNF-α, the inhibition at 10 µM was 87.9%.

`CSc1ccc(-n2c(-c3ccc(Cl)cc3)nc3[nH]nc(N)c3c2=O)cc1` [Example 8, 3-Amino-5-[(4-methylthio)phenyl]-6-(4-chlorophenyl)-1,5-dihydro-4H-pyrazolo[3,4-d]pyrimidin-4-one] displayed an inhibition at 0.25 µM against COX-2 of 28.3%. In addition, in the test with NCI-H460, the “% T/C Lung (NCI-H460)” value was 2%. The “% T/C Breast (MCF-7)” value in the test on MCF-7 was determined as 26%. In addition, the “% T/C CNS (SF-268)” value in the test with SF-268 is reported as 36%.

On to `CSc1ccc(-n2c(-c3ccc(C)cc3)nc3[nH]nc(N)c3c2=O)cc1` [Example 13, 3-Amino-5-[(4-methylthio)phenyl]-6-(4-methylphenyl)-1,5-dihydro-4H-pyrazolo[3,4-d]pyrimidin-4-one], for which at 0.25 µM the inhibition against COX-2 was 26.8%.

Take `CSc1ccc(-n2c(-c3ccccc3)nc3[nH]nc(N)c3c2=O)cc1` [Example 11, 3-Amino-5-[(4-methylthio)phenyl]-6-phenyl-1,5-dihydro-4H-pyrazolo[3,4-d]pyrimidin-4-one]: 10 µM produced 29.2% inhibition against COX-2.

Turning to `Nc1n[nH]c2nc(-c3ccccc3)n(-c3ccc(F)cc3)c(=O)c12` [Example 12, 3-Amino-5-(4-fluorophenyl)-6-phenyl-1,5-dihydro-4H-pyrazolo[3,4-d]pyrimidin-4-one], the inhibition at 0.25 µM on COX-2 turned out to be 26.2%.

Take `CSc1ccc(-n2c(-c3ccc(C(F)(F)F)cc3)nc3[nH]nc(N)c3c2=O)cc1` [Example 17, 3-Amino-5-[(4-methylthio)phenyl]-6-(4-trifluoromethylphenyl)-1,5-dihydro-4H-pyrazolo[3,4-d]pyrimidin-4-one]: on COX-2, at 0.25 µM the inhibition was 19.4% and the inhibition at 10 µM came to 36.5%. Moreover, the “% T/C Lung (NCI-H460)” value in the test with NCI-H460 is given as 25%. Further, the “% T/C Breast (MCF-7)” value with MCF-7 was found to be 0%. Also, in the test with SF-268, the “% T/C CNS (SF-268)” value is recorded as 0%.

At COX-2, `CSc1ccc(-c2nc3[nH]nc(N)c3c(=O)n2-c2ccc(C(C)(C)C)cc2)cc1` [Example 6, 3-Amino-5-(4-tert-butylphenyl)-6-[4-(methylthio)phenyl]-1,5-dihydro-4H-pyrazolo[3,4-d]pyrimidin-4-one] displayed an inhibition at 0.25 µM of 18.6% and an inhibition at 10 µM of 37.7%. For the same compound, the “% T/C Lung (NCI-H460)” value with NCI-H460 came to 0%. In the test with MCF-7, the “% T/C Breast (MCF-7)” value turned out to be 0%. Besides, in the test with SF-268, the “% T/C CNS (SF-268)” value was found to be 1%.

With `CCc1ccc(-n2c(-c3ccc(SC)cc3)nc3[nH]nc(N)c3c2=O)cc1` [Example 10, 3-Amino-5-(4-ethylphenyl)-6-[(4-methylthio)phenyl]-1,5-dihydro-4H-pyrazolo[3,4-d]pyrimidin-4-one], the “% T/C Lung (NCI-H460)” value with NCI-H460 amounted to 4%. Also, in the test with MCF-7, the “% T/C Breast (MCF-7)” value stood at 22%. Besides, in the test on SF-268, the “% T/C CNS (SF-268)” value is on record as 10%.

`CSc1ccc(-c2nc3c(c(N)nn3C)c(=O)n2-c2ccc(F)cc2)cc1` [Example 25, 3-Amino-5-(4-fluorophenyl)-1-methyl-6-[4-(methylthio)phenyl]-1,5-dihydro-4H-pyrazolo[3,4-d]pyrimidin-4-one]: the inhibition at 10 µM in the test on TNF-α turned out to be 52.9%.

Take `CSc1ccc(-c2nc3[nH]nc(N)c3c(=O)n2-c2ccc(Cl)cc2)cc1` [Example 9, 3-Amino-5-(4-chlorophenyl)-6-[(4-methylthio)phenyl]-1,5-dihydro-4H-pyrazolo[3,4-d]pyrimidin-4-one]: at 10 µM the inhibition at COX-2 was 27.1%. For the same compound, in the test on NCI-H460, the “% T/C Lung (NCI-H460)” value worked out at 4%. Further, in the test with MCF-7, the “% T/C Breast (MCF-7)” value is 9%. The “% T/C CNS (SF-268)” value in the test on SF-268 was found to be 31%.
